In US8673313B2, “Cell penetrating peptides and its use fused to biomolecules with therapeutic action” (priority 2007, dated 2014):
Ends that are not written are not given here.

How the values were obtained:
murine splenocytes = experiment: Internalization of the analogues L-2 and L-20 to murine splenocytes (confocal microscopy); type: cell-based, mice C57BL/6; conditions: 0.8 mg biotinylated peptide (278-280 μM), 37° C., 10 min to 18 h, FIG. 2
Experimental: For the splenocytes isolation, the mice C57BL/6 were sacrificed by break-up of the cervical and the splenocytes were removed aseptically. The cellular suspensions of the animals by each group met in pool and they were homogenized smoothly. The splenocytes were washed and the erythrocytes were lysed with a solution of NH4C10.83%. After washing, the splenocytes are divided en different tubes with 20×10^6 of cells in 10 mL of fresh medium RPMI 1640 supplemented with 7% de fetal bovine serum. Each preparation was incubated with 0.8 mg of the biotinylated peptides L-2 (278 μM) y L-20 (280 μM) in different times: 10 min, 30 min, 1 h and 18 h. The incubations were at 37° C. and 5% de CO2. The cells on sterile glass cover slips were fixed, permeabilized and treated with propidium Iodide for to stain the nucleus and with streptavidine-fluorescein for detection of peptides inside the cells.

[1] = test system: cells with different histological origins (J774, CasKi, HeLa, TC-1, Hep2); experiment: Internalization of CPP LALF or their analogues to cells with different histological origins (fluorescence microscopy); type: cell-based; conditions: 25 or 50 μM biotinylated peptide, 37° C., streptavidin-fluorescein, FIG. 1
Experimental: (§1) Different cellular lines were used in this realization (Table 1). Cells grown on sterile glass cover slips of 22 mm overnight at 37° C. and 5% of CO2 with RPMI 1640, 10% inactivated calf fetal serum and 2 mM de glutamine. Then, 25 or 50 μM de CPP LALF or their biotinylated analogues L-2 y L-20 added and incubated at 37° C. and 4° C. in different times (10 min, 20 min, 30 min, 1 h y 2 h). Wash briefly with PBS and fix cells by 4% paraformaldehide per 20 min at room temperature. Wash in three changes of PBS. The permeabilization of the cells was with 0.5% Tritón X-100 for 15 min a room temperature. Wash in three changes of PBS. The cells were incubating for 1 hour in 1% blocking SFB in PBS at room temperature. Wash in three changes of PBS. Incubate with 1:50000 in PBS streptavidin-fluorescein for 45 minutes in a dark chamber. Wash extensively with PBS. Mount cover slip with aqueous mounting medium. Examine using a fluorescence microscope with appropriate filters.
(§2) As a negative control were used not related biotinylated and cells without peptide.

J774 cells [2] = experiment: Fluorescence microscopy: internalization of the cargo protein GFP to the cell; type: cell-based; conditions: FIG. 6
Description: The protein produced in E. coli from the recombinant fusion LALF-GFP (GFP-English, green fluorescence protein) was used to verify that the CPP LALF or its analogues could internalize the cargo protein. The GFP (GenBank Accession #U55762) was obtained using the polymerase chain reaction from plasmid pEGFP-N1 of Clontech using oligonucleotides with SEQ ID N0. 11 and 12. Both oligonucleotides have restricted sites used for cloning (HindIII-sense and BamHI-antisense).
For the construction of recombinant fragment, synthetic LALF and GFP gene obtained by PCR were inserted with the T4 ligase in the vector pM238, similar as in the example III. The recombinant clone is identified with the SEQ ID N0. 13 and 14.
With the recombinant and purified LALF-GFP protein was performed an similar experiment to the example V, but in this case the cells J774 incubated with LALF-GFP, LALF biotinilade, GFP and PBS.

J774 cells [3] = experiment: Internalization of CPP LALF in J774 cells at 4° C. (fluorescence microscopy); type: cell-based; conditions: J774, 4° C., 10 min incubation, FIG. 1
Experimental: as §1, §2

J774 cells [4] = experiment: Fluorescence microscopy: internalization of the cargo protein E7 to the cell; type: cell-based; conditions: 1.66 μM protein, J774, 37° C., 30 min, 1 hour and 2 hours, FIG. 4
Experimental: Cells J774 grown on sterile glass cover slips of 22 mm overnight at 37° C. and 5% of CO2 with RPMI 1640, 10% inactivated calf fetal serum and 2 mM de glutamine. Then, different glass cover slips incubated with 1.66 μM fusion protein LALF-E7, 1.66 μM of protein E7 and PBS (as negative control) a 37° C. per 30 min, 1 hour and 2 hours. CasKi cells (human cells expressing HPV 16) grown as positive control in the same experimental conditions.
After incubation the cells were washed briefly with PBS and fix cells by 4% paraformaldehide per 20 min at room temperature. Wash in three changes of PBS. The permeabilization of the cells was with 0.5% Tritón X-100 for 15 min a room temperature. Wash in three changes of PBS. Then, the cells were incubating for 1 hour in 1% blocking SFB in PBS at room temperature. Wash in three changes of PBS. Cells were incubated with goat IgG anti E7/HPV 16 polyclonal antibody (Santa Cruz) diluted in PBS 1:50. Wash extensively with PBS. Incubate with anti-goat-fluorescein IgG polyclonal antibody (Santa Cruz) diluted in PBS 1:50 for 45 minutes in a dark chamber. Wash extensively with PBS. Mount cover slip with aqueous mounting medium. Examine using a fluorescence microscope with appropriate filters.

J774 cells [5] = experiment: Western blot: internalization of the cargo protein E7 to the cell; type: cell-based; conditions: 25 μM protein, J774, 4 hours at 37° C., FIG. 5
Experimental: The cells J774 grown overnight at 37° C. and 5% of CO2 with RPMI 1640, 10% inactivated calf fetal serum and 2 mM de glutamine. After that, the cell were aliquoted in tubes with 5×10^6 cells each and incubated with 25 μM of fusion protein LALF-E7, 25 μM of protein E7 and PBS during 4 hours at 37° C. The sedimentation of the cells was made by a centrifugation to 1000 rpm by 10 minutes. Wash pellet in three changes of PBS. Cells were ruptured in 100 μL of RIPA buffer (Promega) mixed in vortex per 10 second and 2 min in ice. The sedimentation of the broken cells was made by a centrifugation to 12000 rpm by 15 minutes. Protein concentration was determined to the cell extract and rum 10 μg of total protein in 15% polyacrilamide gel. Subsequently the gel was transferred to a nitrocellulose membrane. The membrane was incubated for 2 hours at room temperature with an IgG goat polyclonal antibody anti-E7 HPV 16 (Santa Cruz) diluted in PBS (1:100). Wash in three changes of PBS. Subsequently, the membrane was incubated for 45 minutes at room temperature and in a dark room with an anti-goat IgG peroxidase conjugate (Sigma) diluted in PBS (1:5000). Wash in three changes of PBS. Finally the ECL system from Amersham Pharmacia Biotech was used.

## L-12: analogous peptide of LALF 32-51 with alanine substitution in the position 12 (SEQ ID N0. 4) (HYRIKPTFRRLAWKYKGKFW; Artificial Sequence Description Analogue L-12)
Murine splenocytes
  internalization into splenocytes: similar
[1]
  internalization into cells: similar

## LALF-biotinilado: biotinylated CPP LALF peptide used as comparator in the GFP experiment (HYRIKPTFRRLKWKYKGKFW; also: biotinylated, site not given here; UniProt P07086 32-51, looked up, fragment)
J774 cells [2]
  internalization of GFP (fluorescent cells): fluorescent cells

## LALF: peptide corresponding to the region 32-51 of LALF protein (SEQ ID N0. 1) (HYRIKPTFRRLKWKYKGKFW; Artificial Sequence Description Synthetic Gen CPP LALF)
J774 cells [3]
  internalization into cells: internalized in the cells J774 with only 10 min of the incubation at 4 °C
Murine splenocytes
  internalization into splenocytes: similar
[1]
  internalization into cells: internalized in different cell types and short incubation times (30 min)

## L-20: analogous peptide of LALF 32-51 with alanine substitution in the position 20 (SEQ ID N0. 5) (HYRIKPTFRRLKWKYKGKFA; Artificial Sequence Description Analogue L-20)
Murine splenocytes
  internalization into splenocytes: internalized in a short times of incubation (30 min)

## E7: recombinant protein E7 of HPV 16, unfused comparator [reference compound]
J774 cells [4]
  internalization of E7 (fluorescent cells, anti-E7 antibody): Negative results
J774 cells [5]
  detection of protein in cell extract by anti-E7 antibody (Western blot): not detected any recognition
